Like-named read-outs stand apart in the source and are kept apart here. Marks after values point to notes of the source that are not given here. Where a SMILES comes first, the peptide text is derived from it. Where no end group is shown, it is not given here. [ ]: non-standard residue; d: D form. The star is where a group is joined. Fmoc = O=C(OCC1c2ccccc2-c2ccccc21)*
How the values were obtained:
[1] = molecular target: T1, human GALR3 (Homo sapiens, UniProt O60755); assay: SRE-luc reporter assay, GALR3; assay type: cell-based;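 further: luciferase activity read in cell lysates across rising peptide concentrations, EC50 being the agonist concentration giving half-maximal stimulation from a sigmoidal nonlinear fit, Gαqi routing Gi-coupled receptor signaling through Gq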
T1 construct: host or cells: HEK293 cells stably expressing Gαqi
T1 sequence (O60755 1-368): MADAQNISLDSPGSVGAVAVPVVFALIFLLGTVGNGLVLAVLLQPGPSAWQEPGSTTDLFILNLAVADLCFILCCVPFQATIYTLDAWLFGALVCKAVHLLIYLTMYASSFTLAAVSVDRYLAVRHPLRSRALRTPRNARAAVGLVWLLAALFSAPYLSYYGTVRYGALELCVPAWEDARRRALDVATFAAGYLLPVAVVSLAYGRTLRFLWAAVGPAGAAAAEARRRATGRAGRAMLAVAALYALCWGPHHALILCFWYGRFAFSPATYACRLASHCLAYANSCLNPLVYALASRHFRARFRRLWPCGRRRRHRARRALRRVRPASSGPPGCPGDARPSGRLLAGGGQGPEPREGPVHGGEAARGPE
Experimental: (§4) The generated mutant SPX peptides were incubated with cells expressing GALR2 and GALR3. […] The activities of the receptors were traced using the serum-response element-driven luciferase (SRE-luc) assay system.
(§5) The SRE-luc reporter vector and plasmid containing human GALR1, GALR2, or GALR3 were transfected into HEK293 cells that stably expressed Gqi protein. Cells were then treated with increasing concentrations of mutant peptides, and the receptor activities were determined using the SRE-luc reporter system.
(§6) HEK293 cells stably expressing Gαqi, which mediates Gαi-coupled receptor activation by stimulating Gαq-dependent signaling pathways[59], were maintained in Dulbecco’s modified Eagle’s medium (DMEM) supplemented with 10% FBS, 100 U/ml penicillin G, and 100 μg/ml streptomycin (Invitrogen). Cells were seeded in 48-well plates at a density of 2 × 10^4 cells per well, one day before transfection. A mixture containing 75 ng of the SRE-luc reporter construct, 75 ng of expression plasmid, and 2 μl of Effectene reagent (Qiagen, Chatsworth, CA, USA) was prepared and added to each well according to the manufacturer’s instructions. Cells were then maintained in serum-free DMEM for 16–18 h before treatment with the ligands. Approximately 48 h after transfection, cells were treated with the respective ligands for 6 h. Cells were lysed by the addition of 100 μl lysis buffer. The luciferase activity in 50 μl of cell extract was determined by a luciferase assay system according to the standard protocol for the Synergy 2 Multi-Mode Microplate Reader (BioTek, Winooski, VT, USA).
(§7) For in vitro studies data analysis was performed by nonlinear regression with a sigmoidal dose-response. The agonist concentrations that induced half-maximal stimulation (EC50) or half-maximal inhibition of binding (IC50) were calculated with GraphPad PRISM4 software (GraphPad Software Inc., San Diego, CA, USA). […] All data are presented as mean ± S.E. of at least three independent experiments and a P value of P < 0.05 was considered statistically significant.

[2] = molecular target: T2, human GALR2 (Homo sapiens, UniProt O43603); assay: SRE-luc reporter assay, GALR2; assay type: cell-based;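 further: luciferase activity read in cell lysates after exposure to rising peptide concentrations, EC50 being the agonist level giving half-maximal stimulation from a sigmoidal nonlinear regression fit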
T2 construct: host or cells: HEK293 cells stably expressing Gαqi
T2 sequence (O43603 1-387): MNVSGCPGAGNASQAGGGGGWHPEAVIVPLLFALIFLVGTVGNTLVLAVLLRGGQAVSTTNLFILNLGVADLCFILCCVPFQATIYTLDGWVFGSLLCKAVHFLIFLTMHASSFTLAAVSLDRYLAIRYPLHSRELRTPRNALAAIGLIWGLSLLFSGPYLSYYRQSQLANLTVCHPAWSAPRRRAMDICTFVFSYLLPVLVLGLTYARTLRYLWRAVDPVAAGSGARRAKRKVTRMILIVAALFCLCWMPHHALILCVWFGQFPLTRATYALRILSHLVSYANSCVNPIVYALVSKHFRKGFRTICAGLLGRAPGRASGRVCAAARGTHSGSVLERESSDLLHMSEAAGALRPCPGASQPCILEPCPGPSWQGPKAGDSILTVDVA
Experimental: as §4, §5, §6, §7

[3] = Peptide stability in FBS by residual IP3 production; assay type: in vitro ADME, bovine; details: for Half-life activity (h) in FBS: peptide 1 μM in 100% FBS, 37 °C, 0, 3, 6, 12, 24, 48, 72 h, residual activity read as IP3 production ([3H]-inositol) in HEK293 cells expressing GALR2, mean ± S.E., at least three independent experiments
Experimental: (§1) To investigate the effects of the modifications on proteolytic susceptibility, the functional activity of peptides that were incubated in 100% serum at 37 °C for 0, 3, 6, 12, 24, 48, and 72 h was determined via inositol 1,4,5-triphosphate (IP3) production in GALR2-expressing cells (Fig. 4A–C and Table 3). […] In addition, dAla4 and dGln14 substitutions contribute to longer longevity of the peptide in serum. In an additional experiment, we examined the degradation rates of the Qu mutant, as well as the Qu mutant with an N-terminal modification and/or dAla4 and dGln14 substitutions.
(§2) Figure 4 Stability of SPX mutants in the presence of FBS (A) Qu analogs in FBS (B) and human serum (C). Potency of Qu mutants toward GALR2 (D) and GALR3 (E). For stability of SPX mutants, peptides (1 μM) were incubated in serum for 0, 3, 6, 12, 24, 48, and 72 hrs. The remaining activities of the peptides were determined by measuring IP3 production by HEK293 cells that express GALR2 after the indicated times. IP3 production was expressed as percent change, where 100% indicates IP3 production by WT SPX incubated in FBS or human serum for 0 h. For potency of Qu mutants toward GALR2 and GALR3, the SRE-luc reporter vector and plasmid containing human GALR2 or GALR3 were transfected into HEK293 cells that stably expressed Gqi protein. Cells were then treated with increasing concentrations of mutant peptides, and the receptor activities were determined using the SRE-luc reporter system.
(§3) To evaluate the stability of SPX and its analogs in FBS or human serum, peptides were incubated at an initial concentration of 1 μM in 100% serum at 37 °C for 0, 3, 6, 12, 24, 48, and 72 hours. Residual peptide activity was then assessed by measuring IP3 in HEK293 cells expressing GALR2. For the IP3 assay, cells were seeded in 12-well plates at a density of 2.5 × 10^5 cells per well, and then the next day, cells were transiently transfected with 1 μg/well of plasmid containing GALR2 using the Lipofectamine 2000 (Invitrogen) transfection reagent. The day following transfection, cells were incubated in M199 media containing 1% FBS, 1% L-glutamine, 1% penicillin/streptomycin, and 1 μCi/well of myo-^3H inositol for 20 h. After a 30-min incubation in buffer A (140 mM NaCl, 20 mM Hepes, 4 mM KCl, 8 mM D-glucose, 1 mM MgCl2, 1 mM CaCl2, 1 mg/ml free fatty acid bovine serum albumin (BSA), and 10 mM LiCl at pH 7.2), cells were treated with the agonist for 40 min at 37 °C. Media was removed, and the reactions were terminated by addition of 1 ml of 10 mM cold formic acid to each well. The plates were stored at 4 °C for 30 min, and the extracts were then transferred into 6-ml plastic tubes containing 500 μl AG1–8X anion exchange columns (BIO-RAD). The tubes were gently mixed with a vortexer, and the supernatants were removed by aspiration. Two washes with 1 ml of distilled water were performed followed by two additional washes with 60 mM ammonium formate/5mM sodium tetraborate. Tritiated inositol was separated from the column by elution with 1 ml of 1 M ammonium formate/0.1 M formic acid, and 800 μl from the elution were taken from each tube and transferred into 6-ml scintillation vials. Then, 2 ml of scintillation cocktail solution (Ultima Gold^TM, Perkin Elmer, Waltham MA, USA) was added to each sample. The radioactivity of [^3H]-myo-inositol samples was measured using a TRI carb 3100TR liquid scintillation analyzer (Packard).

[4] = Peptide stability in human serum by residual IP3 production; assay type: in vitro ADME; details: peptide 1 μM in 100% human serum, 37 °C, 0, 3, 6, 12, 24, 48, 72 h; residual activity read as IP3 production ([3H]-inositol) in HEK293 cells expressing GALR2; mean ± S.E., at least three independent experiments
Experimental: as §1, §2, §3

[5] = HEK293-Gqi cells transfected with SRE-luc and human GALR3, 6 h ligand treatment, mean ± S.E. of at least three independent experiments, NM = not measurable, read-out: GALR3 EC50
[6] = HEK293-Gqi cells transfected with SRE-luc and human GALR2, 6 h ligand treatment, mean ± S.E. of at least three independent experiments, NM = not measurable, read-out: GALR2 EC50

EC50 [1, 5] [nM] | EC50 [2, 6] [nM] | Half-life activity (h) in FBS [3] | Half-life activity (h) in Human Serum [4] | Initial activity abolished after incubation in FBS ([3]; 12-h incubation in 100% FBS, 37 °C, peptide 1 μM, IP3 production in GALR2-expressing cells) [%] | Molecule | EC50 [1] [nM] | EC50 [2] [nM]
112 ± 14.5 | 45.7 ± 5.9 | 4.1 ± 0.5 h |  | 80 | CSCC[C@H](NC(=O)[C@H](C)NC(=O)[C@H](CCC(N)=O)NC(=O)[C@@H]1CCCN1C(=O)[C@@H](NC(=O)[C@H](Cc1c[nH]c2ccccc12)NC(=O)[C@@H](N)CC(N)=O)[C@@H](C)O)C(=O)N[C@@H](CC(C)C)C(=O)N[C@@H](Cc1ccc(O)cc1)C(=O)N[C@@H](CC(C)C)C(=O)N[C@@H](CCCCN)C(=O)NCC(=O)N[C@@H](C)C(=O)N[C@@H](CCC(N)=O)C(N)=O [WT, spexin, reference compound] |  | 
112 ± 23.1 | 97.7 ± 18.3 | 8.7 ± 0.4 ^a h |  |  | CSCC[C@H](NC(=O)[C@H](C)NC(=O)[C@H](CCC(N)=O)NC(=O)[C@@H](C)NC(=O)[C@@H](NC(=O)[C@H](Cc1c[nH]c2ccccc12)NC(=O)[C@@H](N)CC(N)=O)[C@@H](C)O)C(=O)N[C@@H](CC(C)C)C(=O)N[C@@H](Cc1ccc(O)cc1)C(=O)N[C@@H](CC(C)C)C(=O)N[C@@H](CCCCN)C(=O)NCC(=O)N[C@@H](C)C(=O)N[C@@H](CCC(N)=O)C(N)=O [dA4] (H-NWT[dA]QAMLYLKGAQ-NH2) |  | 
38.9 ± 8 | 21.4 ± 5.54 | 10.3 ± 0.3 ^a h |  |  | CSCC[C@H](NC(=O)[C@H](C)NC(=O)[C@H](CCC(N)=O)NC(=O)[C@@H]1CCCN1C(=O)[C@@H](NC(=O)[C@H](Cc1c[nH]c2ccccc12)NC(=O)[C@H](N)CC(N)=O)[C@@H](C)O)C(=O)N[C@@H](CC(C)C)C(=O)N[C@@H](Cc1ccc(O)cc1)C(=O)N[C@@H](CC(C)C)C(=O)N[C@@H](CCCCN)C(=O)NCC(=O)N[C@@H](C)C(=O)N[C@@H](CCC(N)=O)C(N)=O [dN1] |  | 
324 ± 66.6 | 77.6 ± 16 | 5.6 ± 0.2 ^a h |  |  | CSCC[C@H](NC(=O)[C@H](C)NC(=O)[C@H](CCC(N)=O)NC(=O)[C@@H]1CCCN1C(=O)[C@@H](NC(=O)[C@H](Cc1c[nH]c2ccccc12)NC(=O)[C@@H](N)CC(N)=O)[C@@H](C)O)C(=O)N[C@@H](CC(C)C)C(=O)N[C@@H](Cc1ccc(O)cc1)C(=O)N[C@@H](CC(C)C)C(=O)N[C@@H](CCCCN)C(=O)NCC(=O)N[C@@H](C)C(=O)N[C@H](CCC(N)=O)C(N)=O [dQa14] |  | 
138 ± 23.2 | 100 ± 18.7 | 4.5 ± 0.6 h |  |  | CSCC[C@H](NC(=O)[C@H](C)NC(=O)[C@H](CCC(N)=O)NC(=O)[C@@H]1CCCN1C(=O)[C@@H](NC(=O)[C@@H](Cc1c[nH]c2ccccc12)NC(=O)[C@@H](N)CC(N)=O)[C@@H](C)O)C(=O)N[C@@H](CC(C)C)C(=O)N[C@@H](Cc1ccc(O)cc1)C(=O)N[C@@H](CC(C)C)C(=O)N[C@@H](CCCCN)C(=O)NCC(=O)N[C@@H](C)C(=O)N[C@@H](CCC(N)=O)C(N)=O [dW2] |  | 
380 ± 49.1 | 38.9 ± 5.8 |  |  |  | NWTPQAMLYLKGPQ-NH2 [P13] |  | 

Continued, molecule first:

Molecule | EC50 [1, 5] [nM] | EC50 [2, 6] [nM] | Half-life activity (h) in FBS [3] | Half-life activity (h) in Human Serum [4] | Initial activity abolished after incubation in FBS ([3]; 12-h incubation in 100% FBS, 37 °C, peptide 1 μM, IP3 production in GALR2-expressing cells) [%] | EC50 [1] [nM] | EC50 [2] [nM]
CSCC[C@H](NC(=O)[C@H](C)NC(=O)[C@H](CCC(N)=O)NC(=O)[C@@H]1CCCN1C(=O)[C@@H](NC(=O)[C@H](Cc1c[nH]c2ccccc12)NC(=O)[C@H](CC(N)=O)NC(C)=O)[C@@H](C)O)C(=O)N[C@@H](CC(C)C)C(=O)N[C@@H](Cc1ccc(O)cc1)C(=O)N[C@@H](CC(C)C)C(=O)N[C@@H](CCCCN)C(=O)NCC(=O)N[C@@H](C)C(=O)N[C@@H](CCC(N)=O)C(N)=O [Ac-N1] | 81.3 ± 16.7 | 58.9 ± 11 | 8.7 ± 0.6 ^a h |  |  |  | 
CC(C)C[C@H](NC(=O)[C@H](C)NC(=O)[C@H](C)NC(=O)[C@H](CC(N)=O)NC(=O)[C@@H](C)NC(=O)[C@@H](NC(=O)[C@H](Cc1c[nH]c2ccccc12)NC(=O)[C@H](CC(N)=O)NC(=O)OCC1c2ccccc2-c2ccccc21)[C@@H](C)O)C(=O)N[C@@H](Cc1ccc(O)cc1)C(=O)N[C@@H](CC(C)C)C(=O)N[C@@H](Cc1ccccc1)C(=O)NCC(=O)N1CCC[C@H]1C(=O)N[C@H](CCC(N)=O)C(N)=O [Fmoc-Qu-dA4-dQ14] (Fmoc-NWT[dA]NAALYLFGP[dQ]-NH2) |  |  | 11.8 ± 0.2 ^a h | 8.8 ± 0.2 ^a h |  |  | 
CC(C)C[C@H](NC(=O)[C@H](C)NC(=O)[C@H](C)NC(=O)[C@H](CC(N)=O)NC(=O)[C@@H]1CCCN1C(=O)[C@@H](NC(=O)[C@H](Cc1c[nH]c2ccccc12)NC(=O)[C@H](CC(N)=O)NC(=O)OCC1c2ccccc2-c2ccccc21)[C@@H](C)O)C(=O)N[C@@H](Cc1ccc(O)cc1)C(=O)N[C@@H](CC(C)C)C(=O)N[C@@H](Cc1ccccc1)C(=O)NCC(=O)N1CCC[C@H]1C(=O)N[C@H](CCC(N)=O)C(N)=O [Fmoc-Qu-dQ14] (Fmoc-NWTPNAALYLFGP[dQ]-NH2) |  |  | 8.4 ± 0.3 ^a h | 6.3 ± 0.1 ^a h |  |  | 
CSCC[C@H](NC(=O)[C@H](C)NC(=O)[C@H](CCC(N)=O)NC(=O)[C@@H]1CCCN1C(=O)[C@@H](NC(=O)[C@H](Cc1c[nH]c2ccccc12)NC(=O)[C@H](CC(N)=O)NC(=O)OCC1c2ccccc2-c2ccccc21)[C@@H](C)O)C(=O)N[C@@H](CC(C)C)C(=O)N[C@@H](Cc1ccc(O)cc1)C(=O)N[C@@H](CC(C)C)C(=O)N[C@@H](CCCCN)C(=O)NCC(=O)N[C@@H](C)C(=O)N[C@@H](CCC(N)=O)C(N)=O [Fmoc] | 126 ± 25.9 | 77.6 ± 16 | 14.2 ± 0.2 ^a h |  |  |  | 
NWTPQAMLYLFGAQ-NH2 [F11] |  |  |  |  |  | 708 ± 119 | 49 ± 10.1
NWTPQAMLYLKGAH-NH2 [Ha14] | 70.8 ± 10.5 | 53.7 ± 6.92 |  |  |  |  | 
NWTPQAMLYLLGAQ-NH2 [L11] | 331 ± 62 | 36.3 ± 10 |  |  |  |  | 
